Laboratory results reported in publication PMC10816808, “Enhancement of the Antitumor and Antimetastatic Effect of Topotecan and Normalization of Blood Counts in Mice with Lewis Carcinoma by Tdp1 Inhibitors—New Usnic Acid Derivatives” (International Journal of Molecular Sciences, 2024).
Where “and” joins values, the source holds several entries; their conditions need not be identical. Equal values may be shown once.

What was measured:
[1] = test system: Krebs-2 ascitic carcinoma; assay: Antitumor effect in the Krebs-2 ascitic carcinoma model; format: in vivo, mice; conditions: for average ascites weight: C57BL mice with Krebs-2, single dose on day 4; for average ascites weight / Average number of tumor cells in ascites: mean ± SD; for Ascites weight / Total number of tumor cells / Tumor cell concentration: individual animals; for Ascites weight / Total number of tumor cells / Tumor cell concentration / Average number of tumor cells in ascites: mice with Krebs-2
Text: The Krebs-2 cancer cell line was obtained from the cell depository of the Institute of Cytology and Genetics SB RAS (Novosibirsk, Russia), and is maintained in mice as a transplanted tumor. Krebs-2 carcinoma is nonspecific to the different genetic constitutions of mice and is weakly immunogenic for mice of all strains. The biological source of Krebs-2 is the epithelial cells of the abdominal wall of the mouse. With intraperitoneal transplantation of tumor cells, an ascitic form is formed.
The effect of the drugs was assessed by the weight of ascites and the number of tumor cells in it.
Strain-nonspecific Krebs-2 ascitic carcinoma was grafted to C57BL mice. Tumor cells were suspended in 0.9% NaCl prior to grafting and injected intraperitoneally (2 million cells per mouse, in 0.2 mL). An ascitic tumor develops after intraperitoneal inoculation, has low immunogenicity, and produces no metastasis during the experiment at the used dose of tumor cells.
The mice were also divided into groups of 6–7 individuals. Treatment was carried out once on the 4th day after tumor transplantation: • - Group 1—Intact control—mice of this group were inoculated with a tumor, receiving 0.2 mL of saline intraperitoneally; • - Group 2—DMSO-Tween-80—mice were injected once intragastrically with a probe 200 μL of a solution containing saline, Tween-80 (10%), and DMSO (15%); • - Group 3—DMSO-Tween-80—mice were injected once intraperitoneally with a solvent for 7; • - Group 4—Tpc (aqueous solution)—mice were injected once intraperitoneally with 200 µL of Tpc at a single dose of 1 mg/kg; • - Group 5—Tpc + 7 i/g—mice received Tpc once as described for groups 3 and 7 in the form of 200 µL of suspension in Tween-80-DMSO once intragastrically at a dose of 50 mg/kg; • - Group 6—Tpc + 7 i/p—mice were injected with topotecan once as described for groups 3 and 7 in the form of 200 µL of suspension Tween-80-DMSO once intraperitoneally at a dose of 50 mg/kg; • - Group 7—7 i/g—mice were injected with 7 as described for group 5; • - Group 8—7 i/p—mice were injected with 7 as described for group 6.
The ascitic tumor weight and the cancer cell concentration in the ascitic fluid (as counted with a Goryaev chamber) were evaluated at the end of the experiment to estimate the effects of the substances. To prepare the samples for cell counting with a Goryaev chamber, 10 μL of the ascitic fluid was combined with 400 μL of saline (a 40-fold dilution). Cells were counted in five large squares, each divided into 16 small squares (80 squares in total) at a low magnification.

[2] = Toxic effect in mice with Krebs-2 carcinoma (body weight, liver and spleen indices); format: in vivo; conditions: for Weight of an individual with ascites / Weight of an individual without ascites: individual animals, mice with Krebs-2; for organ index, Liver (group mean) / organ index, Spleen (group mean): mice with Krebs-2 carcinoma
Text: We also studied the effect of topotecan, compound 7, and their combinations on changes in body weight of mice with LLC from days 1 to 18 after tumor transplantation and of mice with Krebs-2 carcinoma from days 1 to 8.
In addition, at the end of the experiments, we removed and weighed the liver and spleen, and calculated the liver and spleen indices.
The toxic effects of the substances were inferred from the changes in body weight during the experiment (the mice with LLC were weighed on days 1, 3, 5, 7, 10, 12, 14, 16, and 18 after grafting) and the liver and spleen weight indices at the end of the experiment.

[3] = Leukocyte and erythrocyte counts in peripheral blood of mice with Krebs-2 carcinoma; format: in vivo
Procedure: We also counted leukocytes and erythrocytes in mice with Krebs-2 carcinoma. […] An increase in white blood cell count in the peripheral blood is associated with the inflammatory process that develops during tumor formation and growth. […] It should be noted that topotecan at the dose of 1 mg/kg was not hemotoxic and partly normalized the concentrations of leukocytes and erythrocytes, apparently due to its antitumor effect. Treatment of mice with only compound 7, regardless of the route of administration, reduced the number of leukocytes somewhat more effectively than the drugs listed above, but the decrease was significant only in comparison with the control without treatment.
White and red blood cell counts were determined using a Goryaev chamber using a BIOSCOP-1 microscope (LOMO-MA, St. Petersburg, Russia).

[4] = 7 50 mg/kg i/g, alone or with Tpc 1 mg/kg i/p
[5] = Tpc 1 mg/kg i/p and/or 7 50 mg/kg i/p

Structure (SMILES) | average ascites weight [1, 5] | Ascites weight [1, 5] | Total number of tumor cells [1, 5] | Tumor cell concentration [1, 5] | Average number of tumor cells in ascites [1, 5] | Weight of an individual with ascites [2, 5] | Weight of an individual without ascites [2, 5] | organ index, Liver (group mean) ([2]; Topotecan and/or 7 i/p) [%] | organ index, Spleen (group mean) ([2]; Topotecan and/or 7 i/p) [%] | Concentration of erythrocytes in peripheral blood [3, 5] [million/µL] | Concentration of leukocytes in peripheral blood [3, 5] [thousand/µL] | further results
C/C(NCCCc1cc(C(C)(C)C)c(O)c(C(C)(C)C)c1)=C1\C(=O)C=C2Oc3c(-c4csc(N/N=C/c5ccc(Br)cc5)n4)c(O)c(C)c(O)c3[C@@]2(C)C1=O [Compound 7, (4E)-10-{2-[(E)-2-[(4-bromophenyl)methylidene]hydrazin-1-yl]-1,3-thiazole-4-yl}-4-(1-{[3-(3,5-di-tret-butyl-4-hydroxyhenyl)propyl]amino}ethylidene)-11,13-dihydroxy-2,12-dimethyl-8-oxatricyclo [7.4.0.02,7]trideca-1(13),6,9,11-tetraen-3,5-dione] | 4,1±1,4 g | 3.1 g and 2.4 g and 4.5 g and 5.5 g and 2.1 g and 5.2 g and 6.2 g | 204.6 million and 105.6 million and 234 million and 165 million and 44.1 million and 530.4 million and 576.6 million | 66 million/ml and 44 million/ml and 52 million/ml and 30 million/ml and 21 million/ml and 102 million/ml and 93 million/ml | 265,8±164,4 million | 21.5 g and 22.2 g and 21.3 g and 22.1 g and 23.4 g and 24.9 g | 18.4 g and 19.8 g and 16.8 g and 16.6 g and 19.4 g and 18.2 g and 18.7 g | 4.1±0.3 | 1.0±0.1 | 7 ± 0.6 | 10.1 ± 0.9 | average ascites weight [1, 4]: 5±0,5 g; Ascites weight [1, 4]: 4.6 g and 6.2 g and 5.1 g and 4.5 g; Total number of tumor cells [1, 4]: 372.6 million and 403 million and 230 million and 209.1 million and 162 million; Tumor cell concentration [1, 4]: 81 million/ml and 65 million/ml and 50 million/ml and 41 million/ml and 36 million/ml; Average number of tumor cells in ascites [1, 4]: 275,3±90 million; Weight of an individual with ascites [2, 4]: 24.5 g and 22.7 g and 21 g and 23.3 g; Weight of an individual without ascites [2, 4]: 19.9 g and 16.5 g and 16.4 g and 19.4 g and 18.8 g; organ index, Liver (group mean) ([2]; 7 i/g, alone or with Topotecan): 4.4±0.5%; organ index, Spleen (group mean) ([2]; 7 i/g, alone or with Topotecan): 1.2±0.1%; Concentration of erythrocytes in peripheral blood [3, 4]: 7.2 ± 0.6 million/µL; Concentration of leukocytes in peripheral blood [3, 4]: 10.7 ± 0.8 thousand/µL
CC[C@@]1(O)C(=O)OCc2c1cc1n(c2=O)Cc2cc3c(CN(C)C)c(O)ccc3nc2-1 [Tpc, topotecan] | 3±0,9 g | 2.3 g and 5.6 g and 3.5 g and 2 g and 2.9 g and 2.4 g | 218.5 million and 459.2 million and 266 million and 182 million and 188.5 million and 120 million and 148.8 million | 95 million/ml and 82 million/ml and 76 million/ml and 91 million/ml and 65 million/ml and 50 million/ml and 62 million/ml | 226,1±78 million | 21 g and 23.5 g and 23.4 g and 21.2 g and 22.9 g and 21.4 g and 21.9 g | 18.7 g and 17.9 g and 19.9 g and 19.2 g and 20 g and 19 g and 19.5 g | 4.8±0.6 | 1.3±0.2 | 7.6 ± 0.4 | 11.2 ± 0.7 | hemotoxicity (in words) ([3]; dose of 1 mg/kg): not hemotoxic
